Test results taken from patent US20240382476A1, “ANDROGEN RECEPTOR BIOMARKERS FOR CANCER THERAPY” (priority 2021, published 2024).

Tests used:
[1] = system: PC-3 (AR−) prostate tumors; test: Antitumor activity in mice bearing subcutaneously xenografted PC-3 prostate tumors; type: in vivo, nude mice; details: PC-3 (AR−) s.c. xenograft, 21-days s.c. continuous infusion by osmotic pump
Text: (§1) Animal Models. Five or six-week old male nude mice were purchased from SPF Biotechnology Co., Ltd. (Beijing, China). The prostate tumor cell suspensions (PC-3 or 22RV1) were grafted subcutaneously into the flank of nude mice at a concentration of 3×10^6 cells/mouse. Eight mice whose tumor volumes length×width^2×0.5 (length×width^2×0.5) reached approximately 100 mm^3 were divided into groups. For 21-days subcutaneous (s.c.) continuous infusion, an osmotic pump containing YM155 was implanted in the dorsum of each animal. Body weight and tumor diameter were measured every 3-4 days. The results are shown in FIG. 6A (AR^−) and 6B (AR^+). Anti-tumor activities are expressed as percent inhibition of tumor growth. The percent inhibition of tumor growth on day 21/28 was calculated using following formula: Mean % Inhibition=(mean (Control)−mean (YM155))/mean (Control)*100%. The treatment was started at day 0; vertical bars, SEM.

[2] = system: 22RV1 (AR+) prostate tumors; test: Antitumor activity in mice bearing subcutaneously xenografted 22RV1 prostate tumors; type: in vivo, nude mice; details: 22RV1 (AR+) s.c. xenograft; 21-days s.c. continuous infusion by osmotic pump
Text: as §1

[3] = system: AR− and AR+ prostate carcinoma cells (PC-3, DU145, 22Rv1, LNCaP, VcaP, LNCaP clone FGC); test: Cell treatment and proliferation assay with high content imaging; type: cell-based, human; details: 6.25-100 nM for 72 hrs (FIG. 2); 10 nM for 2-72 hrs (FIGS. 3A-3B)
Protocol: Cell Treatment and proliferation assay. PC-3 and DU145 cells were seeded in 96-well plates (Corning, USA) at 2000 cells/well; LNCaP, VcaP, and LNCaP clone FGC cells were seeded at 5000 cells/well; and 22Rv1 cells were seeded at 3000 cells/well. Cells were treated with 10 nM YM155 or 0.1% DMSO (VWR, USA) for different times (2, 6, 24, 48, and 72 hrs). DU145 cells were also treated with YM155 (10 nM) in further combination with etoposide (0.2 ∪M)+carboplatin (2 ∪M), etoposide (0.2 ∪M)+cisplatin (2 μM), or docetaxel (0.005 μM)+carboplatin (2 μM). At indicated times, cells were fixed with Formaldehyde (final concentration at 4 or 5%; Thermo, USA) for 30-40 minutes at room temperature. The cells were washed three times with PBS (Cellmax, China), then blocked and permeabilized with 3% BSA (Sigma, USA) in 0.5% Triton X-100 (Sigma, USA) for 2 hrs at room temperature. After discarding the supernatant, the cells were incubated with DAPI (Beyotime, China) for 10 minutes at room temperature, then washed again three times with PBS. The cells were kept in PBS and protected from light throughout experiments. The treated cells were scanned for image acquisition with CellInsight™ CX5 High-Content Screening (HSC) Platform (Thermo Fisher), equipped with filters for DAPI (Ex: 386 nm).
PC-3, DU145, 22Rv1, LNCaP, VcaP, and LNCaP clone FGC cells were seeded in 96-well plates at 2000 cells/well. […]

1-(2-Methoxyethyl)-2-methyl-4,9-dioxo-3-(pyrazin-2-ylmethyl)-4,9-dihydro-1H-naphtho [2,3-d] imidazolium bromide [YM155]
percent inhibition of tumor growth relative to control ([1]; day 21): 89.62% | percent inhibition of tumor growth relative to control ([1]; day 28): 93.63% | activity towards tumor growth relative to control [2]: no significant difference | sensitivity of AR− versus AR+ prostate carcinoma cells to treatment (total cell count) [3]: more sensitive
